# According to ChEMBL document CHEMBL1159106, “Identification of potential and selective collagenase, gelatinase inhibitors from Crataegus pinnatifida” (Bioorg Med Chem Lett, 2010):
# Assays:
# [1] = Inhibition of collagenase type 4 after 30 mins by fluorescence plate reader
# [2] = target: Matrix metalloproteinase-9 (Homo sapiens, UniProt P14780); test: Inhibition of human neutrophils gelatinase B after 30 mins by fluorescence plate reader
# [3] = target: 72 kDa type IV collagenase (Homo sapiens, UniProt P08253); test: Inhibition of human rheumatoid synovial fibroblasts gelatinase A after 30 mins by fluorescence plate reader
# Chain of 72 kDa type IV collagenase (P08253 whole entry): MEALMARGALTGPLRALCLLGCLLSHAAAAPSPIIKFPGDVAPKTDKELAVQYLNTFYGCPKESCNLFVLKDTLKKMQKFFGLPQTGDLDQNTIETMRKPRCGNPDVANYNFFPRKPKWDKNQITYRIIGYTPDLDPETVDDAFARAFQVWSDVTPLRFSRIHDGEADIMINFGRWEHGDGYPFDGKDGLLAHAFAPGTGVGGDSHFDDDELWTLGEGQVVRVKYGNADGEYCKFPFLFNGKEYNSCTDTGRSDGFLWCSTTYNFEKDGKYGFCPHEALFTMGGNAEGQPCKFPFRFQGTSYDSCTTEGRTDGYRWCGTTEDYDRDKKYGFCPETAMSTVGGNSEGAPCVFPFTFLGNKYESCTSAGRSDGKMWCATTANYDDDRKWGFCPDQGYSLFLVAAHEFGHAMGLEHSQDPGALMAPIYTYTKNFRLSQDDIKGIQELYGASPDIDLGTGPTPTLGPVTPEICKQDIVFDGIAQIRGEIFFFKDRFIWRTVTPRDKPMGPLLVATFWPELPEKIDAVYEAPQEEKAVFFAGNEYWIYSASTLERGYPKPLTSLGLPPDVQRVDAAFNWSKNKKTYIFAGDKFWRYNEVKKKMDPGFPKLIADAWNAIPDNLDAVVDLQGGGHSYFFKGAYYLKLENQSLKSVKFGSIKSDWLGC
# Chain of Matrix metalloproteinase-9 (P14780 whole entry): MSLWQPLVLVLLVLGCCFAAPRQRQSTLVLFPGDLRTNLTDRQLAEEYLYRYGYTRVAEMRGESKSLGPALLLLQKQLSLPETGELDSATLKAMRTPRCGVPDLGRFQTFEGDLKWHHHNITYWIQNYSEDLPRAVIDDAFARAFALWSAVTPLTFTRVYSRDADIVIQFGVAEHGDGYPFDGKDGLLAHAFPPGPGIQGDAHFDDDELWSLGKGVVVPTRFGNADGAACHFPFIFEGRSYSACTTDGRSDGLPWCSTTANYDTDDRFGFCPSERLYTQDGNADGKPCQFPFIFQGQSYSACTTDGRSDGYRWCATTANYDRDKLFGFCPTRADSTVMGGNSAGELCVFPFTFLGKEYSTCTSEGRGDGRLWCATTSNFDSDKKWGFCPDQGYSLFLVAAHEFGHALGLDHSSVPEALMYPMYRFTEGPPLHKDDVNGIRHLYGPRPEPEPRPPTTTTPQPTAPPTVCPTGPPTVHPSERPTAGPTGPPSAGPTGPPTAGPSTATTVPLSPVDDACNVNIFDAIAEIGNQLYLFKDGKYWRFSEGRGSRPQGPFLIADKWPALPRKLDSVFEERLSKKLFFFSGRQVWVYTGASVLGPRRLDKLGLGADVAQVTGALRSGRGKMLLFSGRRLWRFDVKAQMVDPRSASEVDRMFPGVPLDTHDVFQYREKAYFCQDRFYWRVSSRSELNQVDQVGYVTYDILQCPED
SMILES,IC50 [1] [µM],IC50 [2] [µM],IC50 [3] [µM]
Oc1cc(O)c2c(c1)O[C@H](c1ccc(O)c(O)c1)[C@H](O)[C@H]2c1c(O)cc(O)c2c1O[C@H](c1ccc(O)c(O)c1)[C@H](O)[C@H]2c1c(O)cc(O)c2c1O[C@H](c1ccc(O)c(O)c1)[C@H](O)[C@H]2c1c(O)cc(O)c2c1O[C@H](c1ccc(O)c(O)c1)[C@H](O)[C@H]2c1c(O)cc(O)c2c1O[C@H](c1ccc(O)c(O)c1)[C@H](O)C2,21.4,39.2,43.2
[H]/N=C(\N/C(=N/[H])NCCCCCCNC(=N)NC(=N)Nc1ccc(Cl)cc1)Nc1ccc(Cl)cc1 [CHLORHEXIDINE],,7.63,7.63
Oc1cc(O)c2c(c1)O[C@H](c1ccc(O)c(O)c1)[C@H](O)[C@H]2c1c(O)cc(O)c2c1O[C@H](c1ccc(O)c(O)c1)[C@H](O)[C@H]2c1c(O)cc(O)c2c1O[C@H](c1ccc(O)c(O)c1)[C@H](O)C2 [PROCYANIDIN C1],11.3,53.2,31.4

# More lines, now with the values ahead:
IC50 [1] [µM],IC50 [2] [µM],IC50 [3] [µM],SMILES
7.63,,,CC(C)C[C@H](NP(=O)(O)O[C@@H]1O[C@@H](C)[C@H](O)[C@@H](O)[C@H]1O)C(=O)N[C@@H](Cc1c[nH]c2ccccc12)C(=O)O [PHOSPHORAMIDON]
0.98,27.3,12.4,Oc1cc(O)c2c(c1)O[C@H](c1ccc(O)c(O)c1)[C@H](O)[C@H]2c1c(O)cc(O)c2c1O[C@H](c1ccc(O)c(O)c1)[C@H](O)[C@H]2c1c(O)cc2c(c1O)C[C@@H](O)[C@@H](c1ccc(O)c(O)c1)O2
0.34,2.3,0.4,Oc1cc(O)c2c(c1)O[C@H](c1ccc(O)c(O)c1)[C@H](O)[C@H]2c1c(O)cc2c(c1O)C(c1c(O)cc(O)c3c1O[C@H](c1ccc(O)c(O)c1)[C@H](O)C3)[C@@H](O)[C@@H](c1ccc(O)c(O)c1)O2 (stereo not given in full)
